According to patent US20200109126A1 (priority 2017, published 2020):
Like-named read-outs stand apart in the source and are kept apart here.

What was measured:
μOR [1] = target: T1, μOR (Homo sapiens, UniProt P35372); assay: cell-based; format: cell-based
μOR [2] = target: T1, μOR; assay: β-arrestin recruitment at μOR without GRK2; format: cell-based
μOR [3] = target: T1, μOR; assay: β-arrestin recruitment at μOR with GRK2 co-expression; format: cell-based
hMOR = hMOR (Homo sapiens, UniProt P35372); assay: Receptor binding with [3H]diprenorphine at hMOR
hKOR = hKOR (Homo sapiens, UniProt P41145); assay: Receptor binding with [3H]diprenorphine at hKOR
humanDOR = humanDOR (Homo sapiens, UniProt P41143); assay: Receptor binding with [3H]diprenorphine at human DOR
μOR [4] = target: T1, μOR; assay: biochemical; format: binding; parameters: expressed in transfected cells; host or cells: HEK293 membranes (Ki); Sf9 insect cell membranes (single-point screen); PDSP for analogs
Experimental: For a primary screen of selected molecules, binding to OR was assessed by measuring competition against the radioligand ^3H-diprenorphine (^3H-DPN). […] The reaction contained 40 fmol of μOR and was incubated in a buffer of 20 mM HEPES pH 7.5, 100 mM sodium chloride, and 0.1% bovine serum albumin for 1 hour at 25° C. To separate free from bound radioligand, reactions were rapidly filtered over Whatman GF/B filters with the aid of a Brandel harvester and ^3H-DPN counts were measured by liquid scintillation.

[5] = read-out: Arrestin pEC50 (converted)
[6] = ± SD (two experiments) or SEM, (n) experiments, read-out: hMOR [3H]dyprenorphine Ki
[7] = ± SD (two experiments) or SEM, (n) experiments, read-out: hKOR [3H]dyprenorphine Ki
[8] = ± SD (two experiments) or SEM, (n) experiments, read-out: humanDOR [3H]dyprenorphine Ki
[9] = molecules identified in the initial screen, read-out: μOR Ki
[10] = PZM analogs, (n) = number of independent experiments, read-out: binding affinity Ki hMOR
[11] = PZM analogs, (n) = number of independent experiments, read-out: binding affinity Ki hKOR
[12] = PZM analogs, (n) = number of independent experiments, read-out: binding affinity Ki hDOR

Chain of hKOR (P41145 whole entry): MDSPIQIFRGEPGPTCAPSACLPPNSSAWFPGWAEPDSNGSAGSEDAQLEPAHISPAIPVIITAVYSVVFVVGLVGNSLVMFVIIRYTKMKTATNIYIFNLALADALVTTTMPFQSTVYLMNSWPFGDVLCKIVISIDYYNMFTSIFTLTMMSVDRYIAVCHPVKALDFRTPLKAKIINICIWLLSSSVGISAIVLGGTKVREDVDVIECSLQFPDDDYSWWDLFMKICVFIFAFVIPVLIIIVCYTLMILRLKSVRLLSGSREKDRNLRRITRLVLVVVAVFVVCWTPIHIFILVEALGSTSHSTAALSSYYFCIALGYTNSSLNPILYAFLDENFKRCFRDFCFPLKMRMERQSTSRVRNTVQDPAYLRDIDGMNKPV
Chain of humanDOR (P41143 whole entry): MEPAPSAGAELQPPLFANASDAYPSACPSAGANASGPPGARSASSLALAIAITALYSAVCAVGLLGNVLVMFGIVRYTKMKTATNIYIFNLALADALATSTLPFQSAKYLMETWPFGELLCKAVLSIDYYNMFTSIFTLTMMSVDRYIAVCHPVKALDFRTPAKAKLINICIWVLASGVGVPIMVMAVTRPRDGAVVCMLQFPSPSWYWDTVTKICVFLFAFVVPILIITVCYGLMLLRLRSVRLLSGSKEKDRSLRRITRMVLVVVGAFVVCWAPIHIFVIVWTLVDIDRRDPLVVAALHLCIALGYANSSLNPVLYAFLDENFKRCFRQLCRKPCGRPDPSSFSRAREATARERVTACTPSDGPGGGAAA
T1 sequence (P35372 whole entry): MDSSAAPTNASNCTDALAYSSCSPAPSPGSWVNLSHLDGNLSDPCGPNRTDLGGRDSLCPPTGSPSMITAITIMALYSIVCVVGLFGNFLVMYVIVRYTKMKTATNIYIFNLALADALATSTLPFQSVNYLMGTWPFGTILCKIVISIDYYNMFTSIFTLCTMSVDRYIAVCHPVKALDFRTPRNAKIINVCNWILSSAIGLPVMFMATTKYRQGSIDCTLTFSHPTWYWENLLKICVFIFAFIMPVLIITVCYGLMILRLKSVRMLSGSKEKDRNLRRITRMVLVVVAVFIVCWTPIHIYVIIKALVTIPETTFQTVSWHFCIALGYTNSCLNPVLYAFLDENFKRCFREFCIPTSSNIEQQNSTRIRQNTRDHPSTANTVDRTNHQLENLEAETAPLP
Chain of hMOR (P35372 whole entry): as above

| SMILES | Arrestin Emax % DAMGO (μOR [2]) | Arrestin + GRK2 Emax % DAMGO (μOR [3]) | Gi/o Emax % DAMGO (μOR [1]) | EC50 (μOR [1]; Gi/o EC50 nM) [nM] | EC50 (μOR [2]; read-out: Arrestin EC50) [µM] | EC50 (μOR [3]; read-out: Arrestin + GRK2 EC50) [µM] | further results |
| --- | --- | --- | --- | --- | --- | --- | --- |
| C[C@H](Cc1ccsc1)NC(=O)NC[C@H](Cc1ccc(O)cc1)N(C)C [(S,R)-21, 1-[(S)-2-(Dimethylamino)-3-(4-hydroxyphenyl)propyl]-3-((R)-1-(thiophen-3-yl)propan-2-yl)urea] |  |  |  |  |  |  | Gi/o activation, μOR agonist activity (in words) (μOR [1]): more potent partial agonist of the μOR as compared to (S,S)-21 |
| C[C@@H](Cc1ccsc1)NC(=O)NC[C@H](Cc1ccccc1)N(C)C [(S,S)-12, 1-[(S)-2-(Dimethylamino)-3-phenylpropyl]-3-[(S)-1-(thiophen-3-yl)propan-2-yl]urea] |  |  |  |  |  |  | Gi/o activation, μOR agonist activity (in words) (μOR [1]): most potent and efficacious Gi/o signaling agonist among the four isomers |
| C[C@@H](NC(=O)[C@@H](N)Cc1ccc(O)cc1)C(=O)NCC(=O)N(C)[C@@H](Cc1ccccc1)C(=O)NCCO [DAMGO, reference compound] | 100 % DAMGO | 100 % DAMGO |  |  |  |  |  |
| C[C@@H](Cc1csc2ccccc12)NC(=O)NC[C@H](Cc1ccc(O)cc1)N(C)C [DD63L-B] | 38 % DAMGO | 92 % DAMGO | 88 % DAMGO | 5.7 | 0.397 | 0.0821 |  |
| CN(C)[C@H](CNC(=S)NCCc1ccsc1)Cc1ccc(O)cc1 [DD81, (S)-1-(2-(dimethylamino)-3-(4-hydroxyphenyl)propyl)-3-(2-(thiophen-3-yl)ethyl)thiourea] | 3 % DAMGO | 27 % DAMGO | 22 % DAMGO | 15.1 | 0.0249 | 0.0671 |  |
| CC[C@@H](Cc1ccsc1)NC(=O)NC[C@H](Cc1ccc(O)cc1)N(C)C [DD88B, 1-((S)-2-(dimethylamino)-3-(4-hydroxyphenyl)propyl)-3-((S)-1-(thiophen-3-yl)butan-2-yl)urea] | 5 % DAMGO | 45 % DAMGO |  |  |  |  |  |
| CN(C)[C@H](CNC(=O)NCCc1ccccc1)Cc1ccc(O)cc1 [DD90] | 5 % DAMGO | 31 % DAMGO | 76 % DAMGO | 4.25 | 0.0535 | 0.144 |  |
| CN(CCc1ccccc1)C(=O)NC[C@H](Cc1ccc(O)cc1)N(C)C [DD102] | 30 % DAMGO | 61 % DAMGO | 76 % DAMGO | 37.9 | 1.98 | 1.5 | EC50 (μOR [2]; [5]): 1.98 µM |
| CN(C[C@H](Cc1ccc(O)cc1)N(C)C)C(=O)NCCc1ccccc1 [DD108] | 120 % DAMGO | 118 % DAMGO | 86 % DAMGO | 35.1 | 4.71 | 1.49 | EC50 (μOR [3]; read-out: Arrestin + GRK2 pEC50 (converted)): 1.49 µM |
| CN(CCc1ccccc1)C(=O)N(C)C[C@H](Cc1ccc(O)cc1)N(C)C [DD109] | No Activity | No Activity | No Activity |  |  |  | Gi/o EC50 nM (μOR [1]): No Activity; Arrestin EC50 nM (μOR [2]): No Activity; Arrestin + GRK2 EC50 nM (μOR [3]): No Activity |
| C[C@@H](Cc1ccsc1)NC(=O)NC[C@H](Cc1ccc(O)c(CO)c1)N(C)C [DD131, 1-((S)-2-(dimethylamino)-3-(4-hydroxy-3-(hydroxymethyl)phenyl)propyl)-3-((S)-1-(thiophen-3-yl)propan-2-yl)urea] | 11 % DAMGO | 45 % DAMGO | 57 % DAMGO | 7.94 | 0.23 | 0.213 |  |
| CN(CC1CC1)[C@H](CNC(=O)NCCc1ccccc1)Cc1ccc(O)cc1 [DD184] | No Activity | No Activity | 40 % DAMGO | 559 |  |  | Arrestin EC50 nM (μOR [2]): No Activity; Arrestin + GRK2 EC50 nM (μOR [3]): No Activity |
| CN(C)[C@H](CNC(=O)NCCc1ccsc1)Cc1ccc(O)cc1 [DD 16, (S)-1-(2-(dimethylamino)-3-(4-hydroxyphenyl)propyl)-3-(2-(thiophen-3-yl)ethyl)urea] | 5 % DAMGO | 33 % DAMGO | 60 % DAMGO | 7.55 |  | 0.144 | Ki (hMOR; [6]): 0.043 µM; Ki (hKOR; [7]): 0.15 µM; Ki (humanDOR; [8]): 0.33 µM; EC50 (μOR [2]; [5]): 0.41 µM |
| CN(C)[C@H](CNC(=O)NC(C)(C)Cc1ccsc1)Cc1ccc(O)cc1 [DD 32L, (S)-1-(2-(dimethylamino)-3-(4-hydroxyphenyl)propyl)-3-(2-methyl-1-(thiophen-3-yl)propan-2-yl)urea] | 3 % DAMGO | 24 % DAMGO | 52 % DAMGO | 23.5 | 0.00523 | 0.0494 | Ki (hMOR; [6]): 0.038 µM; Ki (hKOR; [7]): 0.046 µM; Ki (humanDOR; [8]): 0.65 µM |
| CN(C)[C@H](CNC(=O)NC(C)(C)Cc1ccccc1)Cc1ccc(O)cc1 [DD 33L, (S)-1-(2-(dimethylamino)-3-(4-hydroxyphenyl)propyl)-3-(2-methyl-1-phenylpropan-2-yl)urea] | No Activity | 14 % DAMGO | 61 % DAMGO | 98.1 |  | 0.134 | EC50 (μOR [1]; Gi/o pEC50): 98.2 nM; Ki (hMOR; [6]): 0.046 µM; Ki (hKOR; [7]): 0.091 µM; Ki (humanDOR; [8]): 0.92 µM; Arrestin EC50 nM (μOR [2]): No Activity |
| C[C@@H](Cc1ccsc1)NC(=O)NC[C@H](Cc1cccc(O)c1)N(C)C [DD 47LS, 1-((S)-2-(dimethylamino)-3-(3-hydroxyphenyl)propyl)-3-((S)-1-(thiophen-3-yl)propan-2-yl)urea] | 12 % DAMGO | 70 % DAMGO | 73 % DAMGO | 17 | 0.357 | 0.211 | Ki (hMOR; [6]): 0.034 µM; Ki (hKOR; [7]): 0.046 µM; Ki (humanDOR; [8]): 0.35 µM |
| C[C@H](NC(=O)NC[C@H](Cc1ccc(O)cc1)N(C)C)c1ccccc1 [DD 53LS, 1-((S)-2-(dimethylamino)-3-(4-hydroxyphenyl)propyl)-3-((S)-1-phenylethyl)urea] | 5 % DAMGO | 33 % DAMGO | 63 % DAMGO | 3.08 | 0.0679 | 0.0874 | Ki (hMOR; [6]): 0.028 µM; Ki (hKOR; [7]): 0.022 µM; Ki (humanDOR; [8]): 0.18 µM |
| CN(C)[C@H](CNC(=O)NC1Cc2ccccc2C1)Cc1ccc(O)cc1 [DD 57L, (S)-1-(2,3-dihydro-1H-inden-2-yl)-3-(2-(dimethylamino)-3-(4-hydroxyphenyl)propyl)urea] | No Activity | No Activity | No Activity |  |  |  | Gi/o EC50 nM (μOR [1]): No Activity; Ki (hMOR; [6]): 0.0083 µM; Ki (hKOR; [7]): 0.04 µM; Ki (humanDOR; [8]): 0.074 µM; Arrestin EC50 nM (μOR [2]): No Activity; Arrestin + GRK2 EC50 nM (μOR [3]): No Activity |
| C[C@@H](Cc1ccccc1)NC(=O)NC[C@H](Cc1ccc(O)cc1)N(C)C [DD 61L-B, 1-((S)-2-(dimethylamino)-3-(4-hydroxyphenyl)propyl)-3-((S)-1-phenylpropan-2-yl)urea] | 12 % DAMGO | 79 % DAMGO | 84 % DAMGO | 35.5 | 0.0841 | 0.278 | Ki (hMOR; [6]): 0.042 µM; Ki (hKOR; [7]): 0.037 µM; Ki (humanDOR; [8]): 0.36 µM |
| CN(C)[C@H](CNC(=O)Cc1cn2ccccc2n1)Cc1ccccc1 [compound 2] |  |  |  |  |  |  | Ki (μOR [4]; [9]): 5.8 µM |
| Cc1cccc(NC2CCN(C(=O)Nc3ccc(F)cc3F)CC2)n1 [compound 3] |  |  |  |  |  |  | Ki (μOR [4]; [9]): 13.8 µM |
| CN(C)[C@H](CNC(=O)Cc1ccc([N+](=O)[O-])s1)Cc1ccccc1 [compound 4] |  |  |  |  |  |  | Ki (μOR [4]): 2.3 µM |
| Cc1ccc2[nH]c(=O)c(CN3CCN[C@@H](c4ccccc4)C3)cc2c1 [compound 5] |  |  |  |  |  |  | Ki (μOR [4]; [9]): 4.7 µM |
| CN(C)[C@H](CNC(=O)NC(C)(C)Cc1ccsc1)Cc1ccc(O)cc1 [drawing 528] |  |  |  |  |  |  | Ki (hMOR; [10]): 0.038 µM; Ki (hKOR; [11]): 0.046 µM; Ki (humanDOR; [12]): 0.65 µM |
| CN(C)[C@H](CNC(=O)NC(C)(C)Cc1ccccc1)Cc1ccc(O)cc1 [drawing 530] |  |  |  |  |  |  | Ki (hMOR; [10]): 0.046 µM; Ki (hKOR; [11]): 0.091 µM; Ki (humanDOR; [12]): 0.92 µM |
| C[C@@H](Cc1ccsc1)NC(=O)NC[C@H](Cc1cccc(O)c1)N(C)C [drawing 531] |  |  |  |  |  |  | Ki (hMOR; [10]): 0.034 µM; Ki (hKOR; [11]): 0.046 µM; Ki (humanDOR; [12]): 0.35 µM |
| CN(C)[C@H](CNC(=O)NC(C)(C)Cc1ccsc1)Cc1cccc(O)c1 [drawing 532] |  |  |  |  |  |  | Ki (hMOR; [10]): 0.025 µM; Ki (hKOR; [11]): 0.032 µM; Ki (humanDOR; [12]): 0.19 µM |
| C[C@@H](Cc1ccsc1)NC(=O)NC[C@H](Cc1ccc(O)c(CO)c1)N(C)C [drawing 535] |  |  |  |  |  |  | Ki (hMOR; [10]): 0.066 µM; Ki (hKOR; [11]): 0.086 µM; Ki (humanDOR; [12]): 1.5 µM |
| Cc1cc(O)cc(C)c1C[C@@H](CNC(=O)N[C@H](C)Cc1ccsc1)N(C)C [drawing 537] |  |  |  |  |  |  | Ki (hMOR; [10]): 0.0041 µM; Ki (hKOR; [11]): 0.012 µM; Ki (humanDOR; [12]): 0.017 µM |
| Cc1cc(O)cc(C)c1C[C@@H](CNC(=O)N[C@@H](C)Cc1ccsc1)N(C)C [drawing 538] |  |  |  |  |  |  | Ki (hMOR; [10]): 0.012 µM; Ki (hKOR; [11]): 0.0065 µM; Ki (humanDOR; [12]): 0.085 µM |
